Measured values reported in patent US8383581B2, “Short-chain peptides as parathyroid hormone (PTH) receptor agonist” (Cadila Healthcare Limited, priority 2009, dated 2013).
Where a SMILES comes first, the peptide text is derived from it. [ ]: non-standard residue; d: D form. ξ: configuration not given here. ξBip(2'-Et-4'-OMe) = CCc1cc(OC)ccc1-c1ccc(CC(N)C(=O)O)cc1; Arg(NO2) = N=C(NCCC[C@H](N)C(=O)O)N[N+](=O)[O-]; ξαMePhe(2,6-F2) = CC(N)(Cc1c(F)cccc1F)C(=O)O; ξαMePhe(2-F) = CC(N)(Cc1ccccc1F)C(=O)O; hhPhe = N[C@@H](CCCc1ccccc1)C(=O)O; hArg = N=C(N)NCCCC[C@H](N)C(=O)O; hCit = NC(=O)NCCCC[C@H](N)C(=O)O; Cit = NC(=O)NCCC[C@H](N)C(=O)O; Nle = CCCC[C@H](N)C(=O)O; Orn = NCCC[C@H](N)C(=O)O; Ac5c = NC1(C(=O)O)CCCC1; Ac3c = NC1(C(=O)O)CC1; Aib = CC(C)(N)C(=O)O

Legend:
Assay type in all cases: in vitro ADME
[1] = Stability of peptides in simulated intestinal fluid (pH 7.5); settings: pH 7.5; for % degradation of peptides in 24 h when incubated with simulated intestinal fluid: 2 μM
In short: (§1)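 Peptides at 2 μM final incubated 0–24 h at 37 °C (50 mM triethanolamine-HCl, pH 7.8) in each matrix, matrix level set to degrade ~50% PTH(1-34) in 1 h; TFA-quenched, C18 HPLC at 206 nm with ESI-MS peak identification; percent degradation from peak areas at each time point.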

[2] = Stability of peptides in simulated gastric fluid (pH 1.5; HCl, NaCl and Pepsin); settings: pH 1.5; for % degradation of peptides in 24 h when incubated with simulated gastric fluid: 2 μM
[3] = Stability of peptides in human liver microsomes; settings: human, microsomes; for % degradation of peptides in 24 h when incubated with liver microsomes: 2 μM, pH 7.8
In short: as §1

[4] = Stability of peptides in human plasma; settings: human, plasma; for metabolised at 24 h, 2 μM: pH 7.8
In short: as §1

| half-life (t1/2) in simulated intestinal fluid ([1]; simulated gi fluid) | % degradation of peptides in 24 h when incubated with simulated intestinal fluid [1] | % degradation of peptides in 24 h when incubated with simulated gastric fluid [2] | half-life (t1/2) in simulated gastric fluid ([2]; simulated gi fluid) | half-life [3] | % degradation of peptides in 24 h when incubated with liver microsomes [3] | half-life [4] | metabolised at 24 h, 2 μM [4] | half-life ([1]; simulated gi fluid) | half-life ([2]; simulated gi fluid) | half-life (t1/2) in liver microsomes [3] | SMILES |
| --- | --- | --- | --- | --- | --- | --- | --- | --- | --- | --- | --- |
| (6) h | 42% | 12% | (8) h | 1 h | 78% | 8 h | 70% |  |  |  | CCCC[C@H](NC(=O)[C@H](CC(C)C)NC(=O)[C@H](CCC(N)=O)NC(=O)[C@@H](NC(=O)[C@H](CCC(=O)O)NC(=O)C1(NC(=O)[C@@H](NC(=O)C2(N)CC2)C(C)C)CC1)[C@@H](C)CC)C(=O)N[C@@H](Cc1c[nH]cn1)C(=O)N[C@@H](CCC(N)=O)C(=O)N[C@@H](CCCCNC(=N)N)C(=O)N[C@@H](C)C(=O)N[C@@H](CCCNC(=N)N[N+](=O)[O-])C(=O)NC(Cc1ccc(-c2ccc(OC)cc2CC)cc1)C(=O)N[C@@H](CCCc1ccccc1)C(N)=O (some centres unmarked) [Seq. ID. 690] (H-[Ac3c]V[Ac3c]EIQL[Nle]HQ[hArg]A[Arg(NO2)][ξBip(2'-Et-4'-OMe)][hhPhe]-NH2) |
|  | 00% | 00% |  |  | 35% | > 24 h | 0% | > 24 h | > 24 h | (5) h | CCCC[C@H](NC(=O)C(C)(Cc1c(F)cccc1F)NC(=O)[C@H](CCC(N)=O)NC(=O)[C@@H](NC(=O)[C@H](CCC(=O)O)NC(=O)C1(NC(=O)[C@@H](NC(=O)C2(N)CCCC2)C(C)C)CC1)[C@@H](C)CC)C(=O)N[C@@H](Cc1c[nH]cn1)C(=O)N[C@@H](CCC(N)=O)C(=O)N[C@@H](CCCCNC(=N)N)C(=O)N[C@@H](C)C(=O)N[C@@H](CCCNC(=N)N[N+](=O)[O-])C(=O)NC(C)(Cc1c(F)cccc1F)C(=O)N[C@@H](CCCc1ccccc1)C(N)=O (some centres unmarked) [Seq. ID. 710] (H-[Ac5c]V[Ac3c]EIQ[ξαMePhe(2,6-F2)][Nle]HQ[hArg]A[Arg(NO2)][ξαMePhe(2,6-F2)][hhPhe]-NH2) |
|  | 00% | 50% |  | 2 h | 86% | > 20 h | 10% | > 24 h | 4 h |  | CCCC[C@H](NC(=O)C(C)(Cc1c(F)cccc1F)NC(=O)[C@H](CCC(N)=O)NC(=O)[C@@H](NC(=O)[C@H](CCC(=O)O)NC(=O)C1(NC(=O)[C@@H](NC(=O)C(C)(C)N)C(C)C)CC1)[C@@H](C)CC)C(=O)N[C@@H](Cc1c[nH]cn1)C(=O)N[C@@H](CCC(N)=O)C(=O)N[C@@H](CCCCNC(=N)N)C(=O)N[C@@H](C)C(=O)N[C@@H](CCCNC(=N)N[N+](=O)[O-])C(=O)NC(C)(Cc1ccccc1F)C(=O)N[C@@H](CCCc1ccccc1)C(N)=O (some centres unmarked) [Seq. ID. 720] (H-[Aib]V[Ac3c]EIQ[ξαMePhe(2,6-F2)][Nle]HQ[hArg]A[Arg(NO2)][ξαMePhe(2-F)][hhPhe]-NH2) |
|  | 00% | 55% |  | 2 h | 84% | > 22 h | 5% | > 24 h | 4 h |  | CCCC[C@H](NC(=O)[C@H](CC(C)C)NC(=O)[C@H](CCC(N)=O)NC(=O)[C@@H](NC(=O)[C@H](CCC(=O)O)NC(=O)C(C)(C)NC(=O)[C@@H](NC(=O)C(C)(C)N)C(C)C)[C@@H](C)CC)C(=O)N[C@@H](Cc1c[nH]cn1)C(=O)N[C@@H](CCC(N)=O)C(=O)N[C@@H](CCCCNC(=N)N)C(=O)N[C@@H](C)C(=O)N[C@@H](CCCNC(=N)N)C(=O)NC(Cc1ccc(-c2ccc(OC)cc2CC)cc1)C(=O)N[C@@H](CCCc1ccccc1)C(N)=O (some centres unmarked) [Seq. ID. 730] (H-[Aib]V[Aib]EIQL[Nle]HQ[hArg]AR[ξBip(2'-Et-4'-OMe)][hhPhe]-NH2) |
|  | 00% | 45% |  | 2 h | 85% | > 23 h | 9% | > 24 h | 4 h |  | CCCC[C@H](NC(=O)[C@H](CC(C)C)NC(=O)[C@H](CCC(N)=O)NC(=O)[C@@H](NC(=O)[C@H](CCC(=O)O)NC(=O)C(C)(C)NC(=O)[C@@H](NC(=O)C(C)(C)N)C(C)C)[C@@H](C)CC)C(=O)N[C@@H](Cc1c[nH]cn1)C(=O)N[C@@H](CCC(N)=O)C(=O)N[C@@H](CCCN)C(=O)N[C@@H](C)C(=O)NC(C)(C)C(=O)NC(Cc1ccc(-c2ccc(OC)cc2CC)cc1)C(=O)N[C@@H](CCCc1ccccc1)C(N)=O (some centres unmarked) [Seq. ID. 750] (H-[Aib]V[Aib]EIQL[Nle]HQ[Orn]A[Aib][ξBip(2'-Et-4'-OMe)][hhPhe]-NH2) |
|  | 00% | 43% |  | 2 h | 84% | > 24 h | 0% | > 24 h | 4 h |  | CCCC[C@H](NC(=O)[C@H](CC(C)C)NC(=O)[C@H](CCC(N)=O)NC(=O)[C@@H](NC(=O)[C@H](CCC(=O)O)NC(=O)C(C)(C)NC(=O)[C@@H](NC(=O)C(C)(C)N)C(C)C)[C@@H](C)CC)C(=O)N[C@@H](Cc1c[nH]cn1)C(=O)N[C@@H](CCC(N)=O)C(=O)N[C@@H](CCCCNC(N)=O)C(=O)NC(C)(C)C(=O)NC(C)(C)C(=O)NC(Cc1ccc(-c2ccc(OC)cc2CC)cc1)C(=O)N[C@@H](CCCc1ccccc1)C(N)=O (some centres unmarked) [Seq. ID. 790] (H-[Aib]V[Aib]EIQL[Nle]HQ[hCit][Aib][Aib][ξBip(2'-Et-4'-OMe)][hhPhe]-NH2) |
|  | 00% | 49% |  | 2 h | 82% | > 24 h | 0% | > 24 h | 4 h |  | CCCC[C@H](NC(=O)[C@H](CC(C)C)NC(=O)[C@H](CCC(N)=O)NC(=O)[C@@H](NC(=O)[C@H](CCC(=O)O)NC(=O)C(C)(C)NC(=O)[C@@H](NC(=O)C1(N)CCCC1)C(C)C)[C@@H](C)CC)C(=O)N[C@@H](Cc1c[nH]cn1)C(=O)N[C@@H](CCC(N)=O)C(=O)NC(C)(Cc1c(F)cccc1F)C(=O)NC(C)(C)C(=O)N[C@@H](CCCNC(N)=O)C(=O)NC(Cc1ccc(-c2ccc(OC)cc2CC)cc1)C(=O)N[C@@H](CCCc1ccccc1)C(N)=O (some centres unmarked) [Seq. ID. 805] (H-[Ac5c]V[Aib]EIQL[Nle]HQ[ξαMePhe(2,6-F2)][Aib][Cit][ξBip(2'-Et-4'-OMe)][hhPhe]-NH2) |
|  | 00% | 52% |  | 2 h | 81% | > 24 h | 0% | > 24 h | 4 h |  | CCCC[C@H](NC(=O)C(C)(Cc1c(F)cccc1F)NC(=O)[C@H](CCC(N)=O)NC(=O)[C@@H](NC(=O)[C@H](CCC(=O)O)NC(=O)C(C)(C)NC(=O)[C@@H](NC(=O)C1(N)CCCC1)C(C)C)[C@@H](C)CC)C(=O)N[C@@H](Cc1c[nH]cn1)C(=O)N[C@@H](CCC(N)=O)C(=O)N[C@@H](CCCCNC(=N)N)C(=O)N[C@@H](C)C(=O)N[C@@H](CCCNC(=N)N)C(=O)NC(Cc1ccc(-c2ccc(OC)cc2CC)cc1)C(=O)N[C@@H](CCCc1ccccc1)C(N)=O (some centres unmarked) [Seq. ID. 811] (H-[Ac5c]V[Aib]EIQ[ξαMePhe(2,6-F2)][Nle]HQ[hArg]AR[ξBip(2'-Et-4'-OMe)][hhPhe]-NH2) |
|  | 05% | 43% |  | 2 h | 84% | > 23 h | 1% | > 22 h | 4 h |  | CCCC[C@H](NC(=O)C(C)(Cc1c(F)cccc1F)NC(=O)[C@H](CCC(N)=O)NC(=O)[C@@H](NC(=O)[C@H](CCC(=O)O)NC(=O)C(C)(C)NC(=O)[C@@H](NC(=O)C1(N)CCCC1)C(C)C)[C@@H](C)CC)C(=O)N[C@@H](Cc1c[nH]cn1)C(=O)N[C@@H](CCC(N)=O)C(=O)N[C@@H](CCCN)C(=O)N[C@@H](C)C(=O)N[C@@H](CCCNC(N)=O)C(=O)NC(Cc1ccc(-c2ccc(OC)cc2CC)cc1)C(=O)N[C@@H](CCCc1ccccc1)C(N)=O (some centres unmarked) [Seq. ID. 829] (H-[Ac5c]V[Aib]EIQ[ξαMePhe(2,6-F2)][Nle]HQ[Orn]A[Cit][ξBip(2'-Et-4'-OMe)][hhPhe]-NH2) |
|  | 00% | 00% |  |  | 33% | > 24 h | 0% | > 24 h | > 24 h | (5) h | CCCC[C@H](NC(=O)C(C)(Cc1c(F)cccc1F)NC(=O)[C@H](CCC(N)=O)NC(=O)[C@@H](NC(=O)[C@H](CCC(=O)O)NC(=O)C(C)(C)NC(=O)[C@@H](NC(=O)C(C)(C)N)C(C)C)[C@@H](C)CC)C(=O)N[C@@H](Cc1c[nH]cn1)C(=O)N[C@@H](CCC(N)=O)C(=O)N[C@@H](CCCN)C(=O)NC(C)(C)C(=O)NC(C)(Cc1c(F)cccc1F)C(=O)NC(Cc1ccc(-c2ccc(OC)cc2CC)cc1)C(=O)N[C@@H](CCCc1ccccc1)C(N)=O (some centres unmarked) [Seq. ID. 840] (H-[Aib]V[Aib]EIQ[ξαMePhe(2,6-F2)][Nle]HQ[Orn][Aib][ξαMePhe(2,6-F2)][ξBip(2'-Et-4'-OMe)][hhPhe]-NH2) |
